Drawing on ChEMBL document CHEMBL1123407, “Synthesis of a new chemically and metabolically stable prostacyclin analogue with high and long-lasting oral activity” (J Med Chem, 1986), this text covers IC50 for three compounds.

The species named for test [1] is Homo sapiens. Put plainly: In vitro inhibition of thrombin (0.1 IU/mL)-induced platelet aggregation in human PRP.
Another test is filed under the species Rattus norvegicus. Put plainly: In vitro inhibition of ADP (1.25 x 10E-6 M)-induced platelet aggregation in rat PRP (wistar). It counts as functional.
Test [2] is filed under the species Homo sapiens. Put plainly: In vitro inhibition of collagen (0.66 ug/mL)-induced platelet aggregation in human PRP. The test is classed as functional.
The species entered for test [3] is Homo sapiens. Put plainly: In vitro inhibition of ADP (0.5 x 10E-6 M)-induced platelet aggregation in human PRP.

By IC50 is commonly meant the concentration that inhibits the measured activity by half.

Turning to `CCC#CC[C@H](C)[C@H](O)C#CC1[C@H]2C/C(=C/COCC(=O)O)CC2C[C@H]1O` (stereo not given in full), the IC50 in the test listed under Homo sapiens [1] came to 0.13 nM; in the test listed under Rattus norvegicus, 3.2 nM; in the test filed under Homo sapiens [2] it was 0.2 nM; in the test listed under Homo sapiens [3] it was 0.64 nM.
`CCCCC[C@H](O)/C=C/[C@@H]1[C@H]2C/C(=C/CCCC(=O)O)O[C@H]2C[C@H]1O` [EPOPROSTENOL]: the IC50 in the test filed under Rattus norvegicus was 2.6 nM; in the test filed under Homo sapiens [3] it was 0.66 nM.
Turning to `CC#CCC(C)[C@H](O)/C=C/[C@@H]1[C@H]2C/C(=C/CCCC(=O)O)C[C@H]2C[C@H]1O` (stereo not given in full) [ILOPROST], the IC50 is 0.39 nM in the test listed under Homo sapiens [1], 11.4 nM in the test filed under Rattus norvegicus, 0.39 nM in the test filed under Homo sapiens [2] and 0.82 nM in the test listed under Homo sapiens [3].
